Reference: US20040137514A1, “Use of antibodies against specific mhc-peptide complexes” (priority 2000, published 2004)

Columns and labels:
T cells of RA patients = details: cited from earlier work
[1] = BALB/c mice; cited from earlier work
[2] = intranasal administration prior to immunization; cited from earlier work
[3] = DBA/1 mice, semi-therapeutic regime; cited from earlier work
BLCL = experiment: FACS control: peptide binding to BLCL; parameters: species or system human; details: data not shown
Protocol: Briefly, 10^6 BLCL were incubated with 40 μg peptide in 500 μl DMEM/HAM's F12 or blank medium for 4 h at 37° C. After this incubation, the cells were washed with PBS, 2% FCS, 0.02% sodiumazide. Approximately 2×10^5 cells were incubated for 1 h, 4° C. with 130 μl MAb-containing hybridoma supernatant plus 20 μl PBS, 20% FCS, 0.02% sodiumazide. After washing the cells twice with PBS, 2% FCS, 0.02% sodiumazide, they were incubated for 1 h, 4° C. with 50 μl PBS, 20% FCS, 0.02% sodiumazide plus 10 μl Goat anti-mouseIg/FITC (Beckton & Dickinson). Subsequently, the cells were washed three times with PBS, 2% FCS, 0.02% sodiumazide and finally resuspended in 400 μl PBS, 2% p-formaldehyde. As a control for peptide binding, cells were incubated with biotinylated HC gp39263-275 and stained with streptavidin/PE (Beckton & Dickinson). As a control for HLA-DR expression, staining was performed with anti-HLA/DR, L243 (purified Ig from hybridoma ATCC HB 55). Stained cells were analyzed with the FACScan™ (Beckton & Dickinson). In all cases, forward and side scatter analysis was applied to eliminate dead cells and debris from further analysis.
These homozygous BLCL were loaded with HC gp-39263-275 and subsequently stained with ORG38948 12A. In a series of experiments, ORG38948 12A stains HC gp-39^263-275 in the context of both DRB1*0401 and DRB1*0407 (Table V). […]

Substance: 326-338: peptide 326-338 of HC gp-39 (VGYDDQESVKSKV; HC gp-39 AA 326-338; listed as Homo sapiens)
- recognition by T cells of RA patients (T cells of RA patients): recognized

Substance: human cartilage glycoprotein-39 [HC gp-39]
- outcome of immunisation [1]: development of a chronic, relapsing arthritis
- DTH responses [2]: complete abrogation of DTH responses
- disease development [2]: protection from or delayed onset of the disease
- incidence and severity of collagen type II induced arthritis [3]: could reduce

Substance: RSFTLASSETG
- binding of peptide to the BLCL (BLCL): binds to the BLCL
